Experimental data: the Deep4Chem optical property database

Experiment: solvent given as SMILES

For CCCCCCN1C(=O)c2cccc3c(-c4ccc(-c5cc(-c6cccc7ccccc67)nn5-c5ccccc5)s4)ccc(c23)C1=O, the emission maximum (in ClCCl) was 515 nm.

Molecule CC1=[N+]2C(=C(c3ccc(Br)cc3)c3ccc(C)n3[B-]2(F)F)C=C1c1cc2n(c1)[B-](F)(F)[N+]1=CC=CC1=C2c1c(C)cc(C)cc1C has an emission maximum (in C1CCCCC1) of 642 nm and an emission maximum (in CCOC(C)=O) of 670 nm.

Work on CCn1c(-c2ccc(-c3ccc4c(c3)C3(c5ccccc5-c5ccccc53)c3ccccc3-4)cc2)c(-c2ccc3ccccc3c2)c(-c2ccc3ccccc3c2)c1-c1ccc(-c2ccc3c(c2)C2(c4ccccc4-c4ccccc42)c2ccccc2-3)cc1 yielded an emission maximum (in CCOC(C)=O) of 441 nm.

Cc1nc2cc3c4c(cccc4c2o1)C(=O)OC3=O gave an emission maximum (in CCO) of 412 nm.

In the case of CC(C)[Si](C#Cc1ccc(C#Cc2c3cc4ccccc4cc3c(C#C[Si](C(C)C)(C(C)C)C(C)C)c3cc4ccccc4cc23)cc1)(C(C)C)C(C)C, the emission maximum (in ClCCl) is reported as 668 nm.

With COC(=O)c1cc(=O)n(C)c2cc(-c3ccc4c(c3)OCCO4)sc12 the emission maximum (in CC#N) was 478 nm and the emission maximum (in ClCCl) was 473 nm.

Work on Cc1cccc(C)c1N1C(c2ccccc2)=Cc2cccc[n+]2[B-]1(F)F yielded an emission maximum (in ClCCl) of 453 nm.

Work on Cc1cccc2[n+]1[B-](F)(F)n1c(c3cccc4cccc1c43)=N2 yielded an emission maximum (in C1CCOC1) of 496 nm, an emission maximum (in CC#N) of 495 nm and an emission maximum (in CCCCCC) of 494 nm. For the same molecule, the emission maximum (in Cc1ccccc1) was 498 nm and the emission maximum (in ClCCl) was 521 nm.

Molecule N#C/C(=C\c1ccc(C#N)cc1)c1nc(-c2ccccc2)cs1 has an emission maximum (in CC#N) of 501 nm, an emission maximum (in CCO) of 500 nm and an emission maximum (in CN(C)C=O) of 507 nm. For the same molecule, the emission maximum (in Cc1ccccc1) was 472 nm and the emission maximum (in ClCCl) was 490 nm.

With CCN(CC)c1ccc(-c2nc(Oc3ccc(-c4nc5cc([N+](=O)[O-])ccc5[nH]4)cc3)nc(Oc3ccc(-c4nc5cc([N+](=O)[O-])ccc5[nH]4)cc3)n2)cc1 the emission maximum (in CN(C)C=O) was 429 nm.

Work on CCCCN1C(=O)C2=C(c3ccc(Br)cc3)NC(=O)C2=C1c1ccc(Br)cc1 yielded an emission maximum (in ClCCl) of 531 nm.

In the case of Cc1ccc(/C=C/c2ccccc2-[n+]2noc([O-])c2C)cc1, the emission maximum (in C1CCCCC1) is reported as 348 nm and the emission maximum (in CC#N) is reported as 450 nm.

For CSc1ccc(C#Cc2ccc(C#Cc3ccc(C#Cc4ccccc4C#N)cc3C#N)cc2C#N)cc1, the emission maximum (in ClC(Cl)Cl) was 455 nm.

With COc1ccc2c(=O)c3c([nH]c2c1)-c1cc(Cl)ccc1NC3(C)C the emission maximum (in C1CCOC1) was 489 nm, the emission maximum (in CC#N) was 512 nm and the emission maximum (in CCCCO) was 525 nm. The emission maximum (in CCCO) was 525 nm, the emission maximum (in CCO) was 525 nm and the emission maximum (in CCOC(C)=O) was 497 nm. For the same molecule, the emission maximum (in CN(C)C=O) was 509 nm, the emission maximum (in CO) was 532 nm and the emission maximum (in CS(C)=O) was 511 nm. The emission maximum (in Cc1ccccc1) was 477 nm, the emission maximum (in ClC(Cl)(Cl)Cl) was 469 nm and the emission maximum (in ClCCl) was 491 nm. It also gave an emission maximum (in O) of 555 nm and an emission maximum (in c1ccccc1) of 478 nm.

Work on COC1=C/C(=C\C=C2C=CN(Cc3ccc(Br)cc3)C=C2)C=CC1=O yielded an emission maximum (in CC#N) of 665 nm, an emission maximum (in CC(C)=O) of 670 nm and an emission maximum (in CC(C)CO) of 642 nm. It also gave an emission maximum (in CC(C)O) of 641 nm, an emission maximum (in CCC#N) of 665 nm and an emission maximum (in CCCCCCO) of 645 nm. For the same molecule, the emission maximum (in CCCCCO) was 643 nm, the emission maximum (in CCCCO) was 640 nm and the emission maximum (in CCCO) was 639 nm. The emission maximum (in CCO) was 638 nm, the emission maximum (in CN(C)C=O) was 682 nm and the emission maximum (in CN(C)P(=O)(N(C)C)N(C)C) was 670 nm. It also gave an emission maximum (in CO) of 636 nm and an emission maximum (in CS(C)=O) of 669 nm.

CCOC(=O)c1c(-c2cc3ccc(OC)cc3oc2=O)nn(-c2cccc(Cl)c2)c1C(=O)OCC gave an emission maximum (in ClCCl) of 422 nm.

With c1ccc(-c2nc3c(c4c2-c2ccccc2CC4)-c2ccccc2CC3)cc1 the emission maximum (in C1CCOC1) was 362 nm, the emission maximum (in CC#N) was 360 nm and the emission maximum (in CCCCCC) was 363 nm. It also gave an emission maximum (in CCOC(C)=O) of 359 nm, an emission maximum (in CO) of 362 nm and an emission maximum (in CS(C)=O) of 360 nm. The emission maximum (in Cc1ccccc1) was 361 nm and the emission maximum (in ClCCl) was 361 nm.

In the case of N#Cc1c(-n2c3ccc(-c4ccccc4)cc3c3cc(-c4ccccc4)ccc32)c(-n2c3ccc(-c4ccccc4)cc3c3cc(-c4ccccc4)ccc32)c(C#N)c(-n2c3ccc(-c4ccccc4)cc3c3cc(-c4ccccc4)ccc32)c1-n1c2ccc(-c3ccccc3)cc2c2cc(-c3ccccc3)ccc21, the emission maximum (in Cc1ccccc1) is reported as 577 nm.

In the case of COc1ccc(C2=CC3=C(c4c(C)cc(C)cc4C)c4cc(-c5ccc(OC)cc5)c(-c5ccc(OC)cc5)n4[B-](F)(F)[N+]3=C2c2ccc(OC)cc2)cc1, the emission maximum (in C1CCCCC1) is reported as 666 nm, the emission maximum (in C1CCOC1) is reported as 674 nm and the emission maximum (in CC#N) is reported as 673 nm. It also gave an emission maximum (in Cc1ccccc1) of 677 nm and an emission maximum (in ClCCl) of 672 nm.

C(/C=C/Nc1ccccc1)=[NH+]c1ccccc1 showed an emission maximum (in CS(C)=O) of 492 nm.

CCOC(=O)CCCCCn1c2ccccc2c(=O)c2cc3c(cc21)c(=O)c1ccccc1n3CC gave an emission maximum (in CO) of 550 nm.

Molecule O=C1/C(=C\c2ccc(N(c3ccccc3)c3ccccc3)cc2)S(=O)(=O)c2ccccc21 has an emission maximum (in C1CCOC1) of 630 nm, an emission maximum (in C1COCCO1) of 600 nm and an emission maximum (in CC#N) of 518 nm. The emission maximum (in CC(C)=O) was 540 nm, the emission maximum (in CCOC(C)=O) was 617 nm and the emission maximum (in CN(C)C=O) was 520 nm. For the same molecule, the emission maximum (in CO) was 597 nm, the emission maximum (in CS(C)=O) was 553 nm and the emission maximum (in Cc1ccccc1) was 587 nm. The emission maximum (in ClC(Cl)Cl) was 626 nm and the emission maximum (in ClCCl) was 631 nm.

With Cc1cccc(C2=Cc3c4ccccc4c4ccccc4[n+]3[B-](F)(F)O2)c1 the emission maximum (in ClC(Cl)Cl) was 447 nm.

In the case of COc1ccc2n1[B-](F)(F)[N+]1=C(SC#N)C=CC1=C2c1ccccc1, the emission maximum (in CC#N) is reported as 527 nm, the emission maximum (in CCCCCC) is reported as 532 nm and the emission maximum (in CCOC(C)=O) is reported as 529 nm. The emission maximum (in CO) was 526 nm and the emission maximum (in ClCCl) was 531 nm.

Work on N#CC(C#N)=Cc1ccc(-c2ccc(N(c3ccccc3)c3ccccc3)cc2)cc1 yielded an emission maximum (in ClC(Cl)Cl) of 634 nm.

Molecule Cc1ccc2c(c1)n(C)c(-c1ccc(-c3ccc(-c4ccc(-c5n(C)c6cc(C)ccc6[n+]5C)cc4)cc3)cc1)[n+]2C has an emission maximum (in O) of 397 nm.

CCCCN(CCCC)c1ccc2c#cc3cc4c#cc5ccc(C(F)(F)F)cc5c#cc#cc5cc(N(CCCC)CCCC)ccc5c#cc4cc3c#cc3ccc(C(F)(F)F)cc3c#cc#cc2c1 gave an emission maximum (in ClCCl) of 555 nm and an emission maximum (in c1ccccc1) of 521 nm.

Work on C1=C(c2ccccc2)C(c2ccccc2)=CC1c1ccccc1 yielded an emission maximum (in C1CCOC1) of 345 nm.

With CC1=CC(C)=[N+]2C1=C(c1ccc(N3CCCCC3)cc1)c1c(C)cc(C)n1[B-]2(F)F the emission maximum (in C1CCOC1) was 515 nm, the emission maximum (in CC#N) was 511 nm and the emission maximum (in CC(=O)C(C)(C)C) was 516 nm. The emission maximum (in CC(C)=O) was 515 nm, the emission maximum (in CCCCCC) was 511 nm and the emission maximum (in CCOC(C)=O) was 515 nm. For the same molecule, the emission maximum (in CO) was 514 nm.

CN(C)c1ccc(-c2ncnc3ccccc23)cc1 showed an emission maximum (in C1CCCCC1) of 421 nm, an emission maximum (in C1CCOC1) of 483 nm and an emission maximum (in CC#N) of 529 nm. It also gave an emission maximum (in CS(C)=O) of 543 nm and an emission maximum (in ClCCl) of 490 nm.

With CC(C)(C)c1ccc2c(c1)c1cc(C(C)(C)C)ccc1n2-c1ccc(N(c2ccc(-c3ccc4c(c3)C(C)(C)c3cc(-c5ccc(N(c6ccc(-n7c8ccc(C(C)(C)C)cc8c8cc(C(C)(C)C)ccc87)cc6)c6ccc(-n7c8ccc(C(C)(C)C)cc8c8cc(C(C)(C)C)ccc87)cc6)cc5)ccc3-4)cc2)c2ccc(-n3c4ccc(C(C)(C)C)cc4c4cc(C(C)(C)C)ccc43)cc2)cc1 the emission maximum (in ClCCl) was 443 nm.

O=C1CC(c2ccc(C(F)(F)F)cc2)c2c(c3ccccc3c3nc4ccccc4nc23)O1 (stereo not drawn) showed an emission maximum (in ClC(Cl)Cl) of 433 nm.

With F[B-]1(F)n2c(ccc2N2CCOCC2)C(c2ccccc2)=C2C=CC(N3CCOCC3)=[N+]21 the emission maximum (in CC#N) was 600 nm, the emission maximum (in CCCCCC) was 595 nm and the emission maximum (in CCOC(C)=O) was 597 nm. It also gave an emission maximum (in CO) of 594 nm and an emission maximum (in ClCCl) of 598 nm.

In the case of Cc1cc(C)c(B(c2cc(-c3ccc(C(F)(F)F)cc3)sc2-c2sc(-c3ccc(C(F)(F)F)cc3)cc2P(=O)(c2ccccc2)c2ccccc2)c2c(C)cc(C)cc2C)c(C)c1, the emission maximum (in CO) is reported as 548 nm.

Molecule N#Cc1c(N2CCCCC2)cc(-c2ccc(Br)s2)c2c1CCc1ccccc1-2 has an emission maximum (in C1CCOC1) of 493 nm.

N#Cc1cc(-c2cc(C#N)c(-n3c4ccccc4c4ccccc43)cc2-n2c3ccccc3c3ccccc32)c(-n2c3ccccc3c3ccccc32)cc1-n1c2ccccc2c2ccccc21 gave an emission maximum (in Cc1ccccc1) of 453 nm.

Cc1cn2cc(-c3ccccc3)[n-][n+]2c1 showed an emission maximum (in ClCCl) of 422 nm.

Work on Cc1ccc(N(c2ccc(C)cc2)c2c3ccccc3c(N(c3ccc(C)cc3)c3ccc(C)cc3)c3ccccc23)cc1 yielded an emission maximum (in Cc1ccccc1) of 533 nm.

For CCCCCCOc1cc(/C=C/c2cc(OCCCCCC)c(/C=C/c3cc(OCCCCCC)c(C=O)cc3OCCCCCC)cc2OCCCCCC)c(OCCCCCC)cc1C=O, the emission maximum (in ClCCl) was 521 nm.

N#Cc1cc2ccc3cc(C#N)c4ccccc4c3c2c2ccccc12 gave an emission maximum (in ClC(Cl)Cl) of 429 nm.

For COc1ccc(C#Cc2nc3ccccc3nc2-c2ccn(-c3ccccc3)c2)cc1, the emission maximum (in ClCCl) was 474 nm.

In the case of Cc1cc(-c2ccc(-n3c4ccccc4c4ccccc43)cc2)nc(-c2ccc(-n3c4ccccc4c4ccccc43)cc2)n1, the emission maximum (in C1CCOC1) is reported as 423 nm, the emission maximum (in CN(C)C=O) is reported as 461 nm and the emission maximum (in Cc1ccccc1) is reported as 398 nm. It also gave an emission maximum (in ClC(Cl)Cl) of 426 nm.

With Cc1cc(C)c(B2c3cc(C(C)(C)C)ccc3-c3cccc4cc(C(C)(C)C)cc2c34)c(C)c1 the emission maximum (in C1CCCCC1) was 431 nm.

COc1cc2c3sc4ccccc4c3c3cncnc3c2c(OC)c1OC gave an emission maximum (in ClCCl) of 426 nm.

For O=C(O)CCNc1cccc2ccccc12, the emission maximum (in CCO) was 417 nm.

O=c1cc(C(F)(F)F)c2cc3c4c(c2o1)CCCN4CCC3 gave an emission maximum (in C1CCCCC1) of 455 nm, an emission maximum (in CC#N) of 521 nm and an emission maximum (in CCO) of 531 nm. For the same molecule, the emission maximum (in CCOC(C)=O) was 501 nm and the emission maximum (in OCC(O)CO) was 546 nm.

For COc1ccc(N(c2ccc(OC)cc2)c2ccc(-c3ccc(C=C(C#N)C#N)o3)cc2)cc1, the emission maximum (in ClC(Cl)Cl) was 696 nm.

For N#Cc1ccc(Oc2ccc3c4c(cccc24)C(=O)N(CCO)C3=O)cc1, the emission maximum (in ClC(Cl)Cl) was 413 nm.

CCCCCCCCCCn1c(-c2cc(-c3nc4ccc(C)cc4n3CCCCCCCCCC)cc(-c3nc4ccc(C)cc4n3CCCCCCCCCC)c2)nc2ccc(C)cc21 gave an emission maximum (in C1CCOC1) of 379.1 nm.
